In patent US10533018B2, “Antimicrobial prochelators to target drug-resistant bacteria and methods of making and using the same” (Duke University, priority 2015, dated 2020):

What was measured:
[1] = Stability in aqueous media / PBS (UV-Vis, LC-MS); type: physicochemical
Method: A commercially available β-lactamase (type III from Enterobacter cloacae, Sigma Aldrich) was used to verify the specificity of compound DB4-51 activation. Aqueous samples of the prochelator with and without β-lactamase were incubated at 25° C. and LC-MS was performed periodically to monitor the conversion. Percent conversion was calculated based upon the area under the LC-MS peak that corresponds to the mass of DB4-51.
The results from the growth inhibition assays support our hypothesis that β-lactamase-producing bacteria activate DB4-51 to release PT as the active agent. […] The UV-Vis absorbance spectra of DB4-51 and PT in PBS buffer are clearly distinct, with DB4-51 showing a shoulder at 264 nm and a broad absorption peak centered at 315 nm.
In order to monitor the stability of DB4-162, the absorbance spectrum was recorded in PBS. The sample was incubated at 37° C. and the absorbance spectrum was recorded periodically. […] Additionally, the concentration of the prochelator in solution was monitored by LC-MS. A calibration curve was prepared after a serial dilution of DB4-162 was analyzed on the instrument and the area under the broad absorbance band at 260-300 nm that correlates with the prochelator was integrated. This curve was then used to calculate the concentration of DB4-162 present in solution after incubating in PBS at 37° C. The sample was analyzed by LC-MS after 0, 24, and 72 hours. After incubating in PBS for 24 hours more than 85% of the original signal was still observed by LC-MS. However, after 72 hours, it was calculated that approximately 60% of DB4-162 was still present in solution. Given the lack of degradation products in the mass spectrum and the absence of any new absorbance peaks it is possible that aggregation of the prochelator over time is the cause of the observed loss of signal. Together, the UV-Vis and LC-MS data support the overall stability of DB4-162 in aqueous conditions. By comparison, the half-life of most β-lactam antibiotics in vivo is a few hours.[44, 45]
The reaction products of the prochelator DB4-162 were analyzed by LC-MS. A sample of 100 μM DB4-162 and 10 μM Rofecoxib (internal standard) in PBS was divided into two LC-MS vials and to one was added 0.5 units/mL β-lactamase. After incubating at room temperature, the samples were run on the LC-MS. Integrating the area under the peak of the UV-trace gives a measure of the concentration of that species. By serial dilution, a calibration curve was constructed in order to quantify the concentration of DB4-162 present in solution. The mass spectrum confirms that the prochelator, with a molecular weight of 477.1 g/mol, elutes at 14.5 minutes (FIG. 10).

E. coli = type: cell-based; conditions: checkerboard, LB, OD600
Description: Further evidence for the influence of bioavailable copper on the IC50 of DB4-51 was obtained by using a checkerboard assay. […] Serial dilutions of DB4-51 in LB were arrayed against dilutions of chelator (BCS and EDTA). The antagonism exists between our prochelator, DB4-51, and the strong, extracellular chelators BCS and EDTA. […] However, at lower concentrations, EDTA works antagonistically with DB4-51 by restoring bacterial growth. This trend further underscores the influence that copper and potentially other metals have on the growth inhibitory activity of DB4-51.

mammalian cells = test: LC-MS of spent mammalian cell culture medium; type: in vitro ADME; conditions: spent cell culture medium of cytotoxicity assay; after 4 hours
Method: Suspecting that the cytotoxicity apparent at high concentrations of DB4-51 in the mammalian cells may be due to PT released by non-specific hydrolysis of DB4-51, we analyzed the spent cell culture medium used for the cytotoxicity assay by LC-MS and found 50-60% loss of detectable, intact prochelator compared to the non-incubated controls after 4 hours.

[2] = Zinpyr-1 fluorescence assay; type: physicochemical
Method: Lanes three and four contain 100 μM DB4-51 and 0.5 units/ml β-lactamase respectively and confirm these molecules are innocent in the fluorescence of zinpyr-1. Lane five contains 100 μM DB4-51 and 0.5 units/ml β-lactamase.

In the case of O=C(Cc1ccccc1)N[C@@H]1C(=O)N2C(C(=O)O)=C(CSc3cccc[n+]3[O-])CS[C@H]12 [DB4-51, 2-((((6R,7R)-2-carboxy-8-oxo-7-(2-phenylacetamido)-5-thia-1-azabicyclo[4.2.0]oct-2-en-3-yl)methyl)thio)pyridine 1-oxide], the “stability by LC-MS” value ([1]; PBS, 72 hours at 37° C.) is reported as “no signs of degradation”, the “absorbance spectrum in PBS” value ([1]; PBS, after 19 hours) is reported as “remains unchanged” and the “Percent conversion in the absence of the enzyme” value ([1]; aqueous, 25° C., after 48 hours) is reported as ≤ 5%. The “interaction with extracellular chelators BCS and EDTA” value (E. coli) was “antagonism”, the “loss of detectable, intact prochelator vs non-incubated controls” value (mammalian cells) was 50-60% and the “decrease of Zn-zinpyr-1 fluorescence” value ([2]; 100 μM + 0.5 units/ml β-lactamase) was “more than 50%”. For the same compound, the “Zn-zinpyr-1 fluorescence on addition of compound” value ([2]; 400 equivalents (100 μM), no β-lactamase) was “unaffected”.
For Cc1csc(=S)n1OCC1=C(C(=O)O)N2C(=O)[C@@H](NC(=O)Cc3ccccc3)[C@H]2SC1 [DB4-162, (6R,7R)-3-(((4-methyl-2-thioxothiazol-3(2H)-yl)oxy)methyl)-8-oxo-7-(2-phenylacetamido)-5-thia-1-azabicyclo[4.2.0]oct-2-ene-2-carboxylic acid], the “stability without the enzyme (LC-MS)” value [1] was “appears stable”, the “original signal still observed by LC-MS” value ([1]; PBS, 37° C., 24 hours) was “more than 85%” and the “prochelator still present in solution (LC-MS)” value ([1]; PBS, 37° C., 72 hours) was “approximately 60%”. The absorbance spectrum change ([1]; PBS, 37° C., after 72 hours) was “only very small spectral changes”.
